Active and inactive are the calls of the source. The rule behind the calls is not given here.
Assays:
[1] = Cmax in 12 hrs fasted Sprague-Dawley rat at 15 mg/kg, po measured upto 24 hrs by LC-MS analysis; assay type: ADME, organism-based; design: route oral, dose 15 mg/kg, time <=24; conditions: in vivo
[2] = Tmax in 12 hrs fasted Sprague-Dawley rat at 15 mg/kg, po measured upto 24 hrs by LC-MS analysis; assay type: ADME, organism-based; conditions: in vivo
[3] = biological target: Receptor-type tyrosine-protein kinase FLT3 (Homo sapiens) (UniProt P36888); experiment: Inhibition of FLT3-mediated signalling pathway in human MV4-11 cells assessed as inhibition of STAT5 phosphorylation at 50 nM by western blot analysis; assay type: cell-based
[4] = Induction of apoptosis in mouse Ba/F3 FLT3-ITD cells assessed as survival population at 1 uM measured after 48 hrs by Annexin V-FITC/propidium iodide staining based flow cytometry(reference value: 93.99 %); assay type: functional
[5] = Induction of apoptosis in mouse BaF3 cells assessed as survival population at 0.1 uM measured after 48 hrs by Annexin V-FITC/propidium iodide staining based flow cytometry(reference value: 96.35 %); assay type: toxicity, cell-based; conditions: read-out: Activity
HL-60 = experiment: Antiproliferative activity against human HL-60 cells expressing wild type FLT3 assessed as reduction in cell viability measured after 72 hrs by MTS assay; assay type: functional, cell-based; conditions: HL-60, 72 h
[6] = biological target: T1, Receptor-type tyrosine-protein kinase FLT3 (Mus musculus) (UniProt Q00342); experiment: Inhibition of FLT3-mediated signalling pathway in mouse Ba/F3 FLT3-ITD cells assessed as inhibition of STAT5 phosphorylation at 1 to 900 nM measured after 12 hrs by western blot analysis; assay type: cell-based; conditions: dose 1-900 nM
T1 sequence (whole entry): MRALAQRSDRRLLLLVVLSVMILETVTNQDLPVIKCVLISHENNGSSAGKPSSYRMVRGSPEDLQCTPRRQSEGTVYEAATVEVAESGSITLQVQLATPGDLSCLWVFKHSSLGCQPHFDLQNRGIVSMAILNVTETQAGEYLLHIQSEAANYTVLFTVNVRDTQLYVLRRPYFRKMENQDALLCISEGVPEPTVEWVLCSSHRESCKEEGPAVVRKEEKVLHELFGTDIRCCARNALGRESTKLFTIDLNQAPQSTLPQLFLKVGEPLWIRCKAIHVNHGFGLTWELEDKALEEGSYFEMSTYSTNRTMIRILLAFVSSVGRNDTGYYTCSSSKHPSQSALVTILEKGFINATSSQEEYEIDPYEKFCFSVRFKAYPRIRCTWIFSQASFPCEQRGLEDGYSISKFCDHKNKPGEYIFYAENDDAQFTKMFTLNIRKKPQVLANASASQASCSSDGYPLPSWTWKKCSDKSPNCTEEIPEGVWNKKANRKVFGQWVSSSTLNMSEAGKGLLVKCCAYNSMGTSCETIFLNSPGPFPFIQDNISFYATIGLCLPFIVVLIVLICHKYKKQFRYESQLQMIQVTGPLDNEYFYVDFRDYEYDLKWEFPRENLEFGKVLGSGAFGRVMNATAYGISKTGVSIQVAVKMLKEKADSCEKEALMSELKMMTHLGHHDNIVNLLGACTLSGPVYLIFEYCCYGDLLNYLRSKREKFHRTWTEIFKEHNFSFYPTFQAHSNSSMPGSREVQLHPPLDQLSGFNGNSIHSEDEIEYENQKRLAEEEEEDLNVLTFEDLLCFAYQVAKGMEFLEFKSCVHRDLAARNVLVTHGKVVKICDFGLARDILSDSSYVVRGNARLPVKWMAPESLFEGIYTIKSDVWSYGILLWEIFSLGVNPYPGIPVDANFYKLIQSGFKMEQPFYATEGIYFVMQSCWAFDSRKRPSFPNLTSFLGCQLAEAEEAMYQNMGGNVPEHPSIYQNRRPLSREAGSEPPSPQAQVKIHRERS

[7] = biological target: T2, Receptor-type tyrosine-protein kinase FLT3 (Homo sapiens, UniProt P36888); experiment: Inhibition of FLT3 (unknown origin)
T2 sequence (P36888 whole entry): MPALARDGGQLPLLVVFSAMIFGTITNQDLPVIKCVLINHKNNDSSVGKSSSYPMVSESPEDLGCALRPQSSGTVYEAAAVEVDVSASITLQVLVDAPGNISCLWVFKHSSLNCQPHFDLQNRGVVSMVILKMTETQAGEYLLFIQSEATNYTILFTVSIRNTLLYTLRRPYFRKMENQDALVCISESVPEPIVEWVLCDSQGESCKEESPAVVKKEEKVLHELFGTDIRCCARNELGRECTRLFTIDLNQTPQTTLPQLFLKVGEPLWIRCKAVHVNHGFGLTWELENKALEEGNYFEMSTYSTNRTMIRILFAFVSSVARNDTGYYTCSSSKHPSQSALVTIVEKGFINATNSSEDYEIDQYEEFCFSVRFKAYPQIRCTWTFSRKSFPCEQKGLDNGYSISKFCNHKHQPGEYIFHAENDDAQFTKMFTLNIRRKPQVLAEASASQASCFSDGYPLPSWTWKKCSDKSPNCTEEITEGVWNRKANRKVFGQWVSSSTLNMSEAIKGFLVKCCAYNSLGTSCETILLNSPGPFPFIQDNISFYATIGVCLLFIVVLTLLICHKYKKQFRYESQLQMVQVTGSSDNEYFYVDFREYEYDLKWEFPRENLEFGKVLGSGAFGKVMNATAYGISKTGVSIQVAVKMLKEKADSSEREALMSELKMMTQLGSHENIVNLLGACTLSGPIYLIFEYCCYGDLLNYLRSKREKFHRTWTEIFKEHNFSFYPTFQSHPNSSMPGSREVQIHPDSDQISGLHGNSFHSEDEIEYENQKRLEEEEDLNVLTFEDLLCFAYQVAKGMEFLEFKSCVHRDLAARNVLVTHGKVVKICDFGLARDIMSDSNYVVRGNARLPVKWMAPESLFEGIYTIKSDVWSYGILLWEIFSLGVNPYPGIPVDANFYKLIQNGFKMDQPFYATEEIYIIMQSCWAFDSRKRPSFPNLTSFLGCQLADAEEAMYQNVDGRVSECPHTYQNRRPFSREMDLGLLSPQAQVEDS

[8] = Antitumor activity against mouse Ba/F3 FLT3-ITD cells implanted in Balb/c mouse assessed as increase in survival time at 30 mg/kg, po administered every 24 hrs (Rvb=14 days); assay type: functional
MOLM-13 = experiment: Antiproliferative activity against human MOLM-13 cells harboring FLT3-ITD mutant assessed as reduction in cell viability measured after 72 hrs by MTS assay; assay type: functional, cell-based; conditions: MOLM-13, 72 h
[9] = Antitumor activity against mouse Ba/F3 FLT3-ITD cells implanted in Balb/c mouse assessed as increase in survival time at 120 mg/kg, po administered every 24 hrs (Rvb=14 days); assay type: functional
[10] = biological target: T1, Receptor-type tyrosine-protein kinase FLT3 (Mus musculus); experiment: Inhibition of FLT3 phosphorylation in mouse Ba/F3 FLT3-ITD cells assessed as reduction in phosphorylated FLT3 level measured after 12 hrs by western blot analysis; assay type: cell-based
MV4-11 = experiment: Induction of apoptosis in human MV4-11 cells assessed as survival population at 0.5 uM measured after 48 hrs by Annexin V-FITC/propidium iodide staining based flow cytometry(reference value: 98.01 %); assay type: functional
[11] = biological target: Receptor-type tyrosine-protein kinase FLT3 (Homo sapiens) (UniProt P36888); experiment: Inhibition of FLT3 phosphorylation in human MV4-11 cells assessed as reduction in phosphorylated FLT3 level measured after 12 hrs by western blot analysis; assay type: cell-based

## COc1cc(CNc2ccc3c(c2)ncn3-c2ccccc2)ccc1OCCO
[1]
  Cmax: 440 ng/mL
[2]
  Tmax: 39 min
[3]
  inhibition: Active
[4]
  Activity: 43.13%
[5]
  viability at 48 h, 0.1 µM: 98.3%
HL-60
  IC50: > 50000 nM
[6]
  inhibition: Active
[7]
  IC50: 85 nM
[8]
  Time: 18 days
MOLM-13
  IC50: 66.8 nM
[9]
  Time: 25 days
[10]
  inhibition: Dose-Dependent Effect
MV4-11
  Activity: 78.6%
[11]
  inhibition: Active

Reference: ChEMBL document CHEMBL5038665, “Identification of the Benzoimidazole Compound as a Selective FLT3 Inhibitor by Cell-Based High-Throughput Screening of a Diversity Library” (J Med Chem, 2022)
